Reference: US20220340975A1, “METHOD OF TREATMENT AND PRONOSTIC OF ACUTE MYELOID LEUKEMIA” (INSERM (Institute National de la Santé et de la Recherche …, priority 2019, published 2022)

Assays:
[1] = test system: NPM1mut AML patient-derived xenograft (H3K27me3HIST1high / H3K27me3HIST1low); experiment: Patient-derived xenograft (PDX) treated with Ara-C; format: in vivo, mice; conditions: for Percentage of leukemic initiating cells (LIC) in BM: 2-round ARAC treated versus untreated
Method: FIG. 4: Detection of leukemic initiating cells after ARAC treatment. (A) H3K27me3HIST1^high and H3K27me3HIST1^low AML secondary transplants were injected in immunocompromised mice (NSG). At disease detection, mice were treated with a first round of ARAC (T1). Blasts in the peripheral blood were followed and a second ARAC treatment (T2) was administrated. (B) Frequency of leukemic initiating cells were analyzed in the BM of the transplanted mice. Percentages are calculated in relation to CD45 and CD33 positive cells detected.
We determined the response to chemotherapy according to H3K27me3 status. This was tested in vivo using patient-derived xenograft (PDX) treated with chemotherapeutic drugs (Ara-C). We used secondary transplantation from 1 H3K27me3HIST1low and 2 H3K27me3HIST1high NPM1mut AML patients. Experimental groups of 6 mice/groups of H3K27me3 HIST1high versus H3K27me3 HIST1low were studied. Mice were treated for one week and progression of leukemia was evaluated by counting hCD45+ cells in blood and after euthanasia in bone marrow. Mouse maintenance and experimental procedures were performed in accordance with protocols approved and compliance with policies approved by the local Committee for Animal Experimentation of Marseille (CAE of Provence number 14), France (2-091009).
We performed a second round of ARAC treatment and analyzed the presence of leukemic cells 4-day post treatment. Numbers of blasts were variable depending on the patient with an accumulation in the BM of leukemic Blast in one of the PDX. […] Thus we analyzed the % of LIC in the 2-round ARAC treated mice in comparison to untreated ones (FIG. 4A).

[2] = test system: OCI-AML3 cells; experiment: Morphological analysis (May-Grunwald Giemsa), cells with cytoplasmic granules; format: cell-based; conditions: ATRA 0.5 μM, 96 h
Method: (§1) (A) OCI-AML cells were stably infected by a doxycycline inducible shCtrl or shH1d. Expression of the main histone H1 genes (HIST1H1B, HIST1H1C, HIST1H1D, HIST1H1E, HIST1H1F0 and HIST1HIFx) were analyzed by qPCR in shCtrl and sh #1 without (Dox−) or with 6-days-induction of doxycycline (Dox+). Data represent three independent Dox inductions. Results are normalized on HPRT and expressed in fold change (FC) between Doxycyline treated (Dox+) and non-treated conditions (Dox−). (B) Percentage of CD11b positive cells in shCtrl and sh #1 upon or not (Dox−) 6-days-induction with 2 μg/mL doxycycline (Dox+), without ATRA (wo ATRA) or with 72 hours of ATRA treatment (0.5 μM or 1 μM). […]
Cytospins were prepared by centrifugation in […] PBS at a speed of 500 rpm for 5 min using Superfrost slides. […] 100 cells were counted in duplicate for each condition and examined for cellular morphology using an structured light ApoTome™ microscope (Zeiss, Munich, Germany) equipped with a 63× 1.4 plan ApoChromat objective and an Axiocam™ MRc5 camera.
To investigate the effect of low H1d expression on AML, we performed H1d knockdown (KD) in OC1-AML3 cells, an AML cell line expressing a NPM1 mutated allele.^26 Efficiency and specificity of our KD were assessed by testing the different mRNA H1 subtypes expression by q-PCR (FIG. 2A) and by measuring H1d protein level after doxycycline induction (data not shown). […]

[3] = test system: OCI-AML3 cells; experiment: CD11b/CD11c differentiation markers by flow cytometry in OCI-AML3 with or without H1d knockdown and ATRA; format: cell-based; conditions: for proportion of the double positive CD11b/CD11c populations / CD11b expression (percentage of CD11b positive cells): ATRA 0.5 μM; for proportion of the double positive CD11b/CD11c populations: 72 h
Method: (A) OCI-AML cells were stably infected by a doxycycline inducible shCtrl or shH1d. Expression of the main histone H1 genes (HIST1H1B, HIST1H1C, HIST1H1D, HIST1H1E, HIST1H1F0 and HIST1HIFx) were analyzed by qPCR in shCtrl and sh #1 without (Dox−) or with 6-days-induction of doxycycline (Dox+). Data represent three independent Dox inductions. Results are normalized on HPRT and expressed in fold change (FC) between Doxycyline treated (Dox+) and non-treated conditions (Dox−). (B) Percentage of CD11b positive cells in shCtrl and sh #1 upon or not (Dox−) 6-days-induction with 2 μg/mL doxycycline (Dox+), without ATRA (wo ATRA) or with 72 hours of ATRA treatment (0.5 μM or 1 μM). (C) Percentage of CD11b-CD11c cells upon 72 h of ATRA-treatment (0.5 μM) in shCtrl and sh #1 conditions. Data represent three independent experiments. Statistical significance was estimated using Mann Whitney test * p<0.05; **p<0.005. (D) Cytological analysis of shCtrl and sh #1 clones upon or not (Dox−) 6-days-induction with doxycycline (Dox+) and after 96 h of ATRA treatment (0.5 μM). (D) May-Grunwald Giemsa coloration of shCtrl and sh #1 clones after 6-days-induction with doxycycline and 96 h hours of ATRA treatment. Black arrows are pointing cytoplasmic azurophilic granules. (E) Expression analysis of two genes associated with ATRA-induced differentiation: CYBB (Cytochrome B-245 Beta Chain) and ITGAM (Integrin Subunit Alpha M) in untreated OCI-AML3 and in ATRA-treated (1 μM) sh #1 without or with doxycycline induction. Data represent three independent experiments. Gene expression was normalized to two housekeeping genes (PGK1 and PPIA). Statistical significance was estimated using T-test (* one-tailed p value <0.05).
The OCI-AML3 cells were grown in MEMα medium supplemented with 20% fetal bovine serum, 100 U/mL penicillin and 100 U/mL streptomycin at 37° C. in humidified atmosphere containing 5% CO2. H1d knockdown was achieved using doxycylin-induced Dharmacon™SMARTvector™ short hairpin RNA (n° V3SH7669-229784413). A non-silencing sh RNA (piSMART VSC10730) was used as a control (shCtrl). Cells containing the SMARTvector™ were selected on puromycin (2 μg/mL) during one day and sorted using ARIAIII cytometer before clonal selection. Three independent cellular clones (sh #1; sh #2; sh #3) were selected. KD of H1d protein was obtained by the addition on doxycycline (2 μg/mL) during 5-7 days. All-trans-retinoic acid (ATRA; Sigma) was resuspended at 10 mM in DMSO and stored at −20° C. Intermediate dilutions were made in culture medium before adding to the cells.
Flow cytometry analyses were performed using a BD-LSRII cytometer and analyzed using BD-DIVA Version 6.1.2 software (BD Biosciences). […]
(§2) To investigate the effect of low H1d expression on AML, we performed H1d knockdown (KD) in OC1-AML3 cells, an AML cell line expressing a NPM1 mutated allele.^26 Efficiency and specificity of our KD were assessed by testing the different mRNA H1 subtypes expression by q-PCR (FIG. 2A) and by measuring H1d protein level after doxycycline induction (data not shown). Consequences of H1d KD on differentiation were evaluated by measuring CD11b and CD11c expression in OCI-AML3 after doxycycline induction. […] As OCI-AML3 can differentiate in vitro in the presence of ATRA, albeit at low efficiency,^27,28 we further analyzed the effect of H1d KD in combination with ATRA treatment. […]

[4] = test system: OCI-AML3 cells; experiment: qPCR expression of ATRA-induced genes CYBB and ITGAM; format: cell-based; conditions: ATRA 1 μM, H1d KD versus no doxycycline induction
Method: as §1, §2

## Nc1ccn([C@@H]2O[C@H](CO)[C@@H](O)[C@@H]2O)c(=O)n1 [ARAC, cytarabine]
[1]; H3K27me3HIST1high PDX
  Percentage of leukemic initiating cells (LIC) in BM: identical before and after treatment
[1]; H3K27me3HIST1low PDX
  Percentage of leukemic initiating cells (LIC) in BM: increased
[1]; first round, one week treatment, all PDX independently of H3K27me3HIST1 status
  Response to chemotherapy (progression of leukemia, hCD45+ cells): Response to chemotherapy was obtained in all mice

## CC1=C(/C=C/C(C)=C/C=C/C(C)=C/C(=O)O)C(C)(C)CCC1 [ATRA, all-trans retinoic acid]
[2]; H1d KD
  proportion of cells with more than two cytoplasmic granules: 31.5±3.7
[2]; control (no H1d KD)
  proportion of cells with more than two cytoplasmic granules: 9.7%
[3]; H1d KD cells
  proportion of the double positive CD11b/CD11c populations: 42.5%
[3]; control (no H1d KD)
  proportion of the double positive CD11b/CD11c populations: 29.8%
[3]; 72 hours, with H1d KD (doxycycline-induced)
  CD11b expression (percentage of CD11b positive cells): 41%
[3]; 72 hours, without H1d KD (control)
  CD11b expression (percentage of CD11b positive cells): 22.6%
[3]; ATRA 1 μM, 72 hours, with H1d KD versus control
  CD11b expression: significant increase
[4]
  CYBB mRNA expression level: increased the amplitude of ATRA-induced upregulation
  ITGAM mRNA expression level: increased the amplitude of ATRA-induced upregulation
